The nature of series [1]: Therapeutic index (cytotoxicity/antitrypanosomal activity). Format: cell-based. The settings on record: human, KB cells; read-out: Ratio IC50.
Another series relates to KB. Description: Cytotoxicity against KB cell line. Format: functional, cell-based. The settings on record: Homo sapiens.
Series [2] is described as follows: Therapeutic index (cytotoxicity/antiprotozoal activity). The settings on record: human, KB cells; read-out: Ratio IC50. Format: cell-based.
A further series relates to Leishmania donovani. Description: Antiprotozoal activity against Leishmania donovani. Type of series: functional, organism-based.
Series [3] has as its system Trypanosoma brucei rhodesiense. Description: Antitrypanosomal activity against Trypanosoma brucei rhodesiense STIB900. Type of series: functional, organism-based.
For another series, the system named is Plasmodium falciparum. Description: Antiplasmodial activity against Plasmodium falciparum 3D7. Format: functional, organism-based.
A short description of series [4]: Therapeutic index, ratio of cytotoxicity/antiplasmodial activity. The following applies: human, KB cells; read-out: Ratio IC50. Format: cell-based.

`CSCCC(C(=O)O)N1CSC(=S)N(CCCCCCN2CN(C(CCSC)C(=O)O)CSC2=S)C1` (stereo unspecified): the selectivity ratio in series [1] came out at 41.2; in series [2] it was 7.3; in series [4] it was 3.7. In addition, the IC50 (usually the concentration that gives 50% inhibition) in the series on KB is 52.5 µM; in the series on Leishmania donovani, 7.26 µM; in series [3] it was 2.3 µM; in the series with Plasmodium falciparum, 14.2 µM.

`CC(C)(CN1CN(C(Cc2ccccc2)C(=O)O)CSC1=S)CN1CN(C(Cc2ccccc2)C(=O)O)CSC1=S` (stereo unspecified): the selectivity ratio in series [1] was 2.1; in series [2] it was 0.4; in series [4] it was 0.2. For the same molecule, the IC50 with KB stood at 2.21 µM; in the series on Leishmania donovani, 5.54 µM; in series [3] it was 1.04 µM; in the series on Plasmodium falciparum it was 9.56 µM.

Turning to `CC(C)(CN1CN(CCCCC(=O)O)CSC1=S)CN1CN(CCCCC(=O)O)CSC1=S`, the selectivity ratio in series [1] was found to be 3.4; in series [2], 1.1; in series [4], 0.9. The IC50 was 8.16 µM in the series with KB, 7.27 µM with Leishmania donovani, 2.48 µM in series [3] and 9.04 µM in the series with Plasmodium falciparum.

Turning to `O=C(O)CC(C(=O)O)N1CSC(=S)N(CCCCCCN2CN(C(CC(=O)O)C(=O)O)CSC2=S)C1` (stereo unspecified), the IC50 turned out to be 76.3 µM in the series on KB, 30.2 µM in the series with Leishmania donovani, 3.6 µM in series [3] and 23.2 µM in the series with Plasmodium falciparum. Besides, the selectivity ratio in series [4] was 0.9.

Turning to `O=C(O)C(Cc1ccccc1)N1CSC(=S)N(CCCCCCN2CN(C(Cc3ccccc3)C(=O)O)CSC2=S)C1` (stereo unspecified), the results for the selectivity ratio in series [1], in series [2] and in series [4] were 7.9, 1.1 and 0.6, respectively. For the same molecule, the IC50 in the series on KB turned out to be 5.73 µM; in the series on Leishmania donovani, 5.42 µM; in series [3], 0.73 µM; in the series on Plasmodium falciparum, 9.13 µM.

On to `O=C(O)CCCN1CSC(=S)N(CCCCCCN2CN(CCCC(=O)O)CSC2=S)C1`, for which the IC50 came to 11.7 µM in the series on KB, 24.3 µM with Leishmania donovani, 4.27 µM in series [3] and 43.3 µM in the series on Plasmodium falciparum. Moreover, the selectivity ratio in series [4] is 2.

Turning to `NC(=O)CCC(C(=O)O)N1CSC(=S)N(CCCCCCN2CN(C(CCC(N)=O)C(=O)O)CSC2=S)C1` (stereo unspecified), the results for the selectivity ratio in series [1] and in series [4] were 5.8 and 4.7, respectively. The IC50 is 52 µM in the series with KB, more than 49 µM in the series on Leishmania donovani, 9.37 µM in series [3] and 11 µM in the series with Plasmodium falciparum.

With `CC(C)(CN1CN(CC(=O)O)CSC1=S)CN1CN(CC(=O)O)CSC1=S`, the selectivity ratio is 1.7 in series [1], 0.7 in series [2] and 1.3 in series [4]. Moreover, the IC50 in the series with KB worked out at 5.09 µM; in the series with Leishmania donovani it was 6.85 µM; in series [3] it was 2.88 µM; in the series on Plasmodium falciparum it was 3.76 µM.

As to `N=C(N)c1ccc(OCCCCCOc2ccc(C(=N)N)cc2)cc1` [PENTAMIDINE], in series [3], half-maximal inhibition (IC50) was put at 0.011 µM.

Take `NC(=O)CC(C(=O)O)N1CSC(=S)N(CCCCCCN2CN(C(CC(N)=O)C(=O)O)CSC2=S)C1` (stereo unspecified): the values for the selectivity ratio in series [1], in series [2] and in series [4] were more than 10, more than 30 and more than 2, respectively. The IC50 with KB is more than 51.7 µM; with Leishmania donovani it was 19.5 µM; in series [3], 5.34 µM; with Plasmodium falciparum, 39.5 µM.

For `O=C(O)CCN1CSC(=S)N(CCCCCCN2CN(CCC(=O)O)CSC2=S)C1`, the selectivity ratio in series [1] came to 21.8; in series [2], 5.6; in series [4], 0.9. For the same molecule, the IC50 in the series with KB stood at 12.3 µM; with Leishmania donovani, 2.18 µM; in series [3] it was 0.56 µM; with Plasmodium falciparum it was 13.1 µM.

Turning to `COc1cc([C@@H]2c3cc4c(cc3[C@H](O)[C@H]3COC(=O)[C@H]23)OCO4)cc(OC)c1OC` [PODOFILOX], in the series with KB, the IC50 was 0.0036 µM.

Turning to `O=C(O)CN1CSC(=S)N(CCCCCCN2CN(CC(=O)O)CSC2=S)C1`, the figures for the selectivity ratio in series [1], in series [2] and in series [4] were 11.4, 1.2 and 0.8, respectively. Besides, the IC50 stood at 8.33 µM in the series with KB, 7.07 µM in the series on Leishmania donovani, 0.73 µM in series [3] and 11 µM in the series on Plasmodium falciparum.

As for `O=C(O)CCCCN1CSC(=S)N(CCCCCCN2CN(CCCCC(=O)O)CSC2=S)C1`, the selectivity ratio amounted to 44.4 in series [1], 2.4 in series [2] and 1 in series [4]. Moreover, the IC50 in the series with KB came out at 16.1 µM; with Leishmania donovani, 6.47 µM; in series [3], 0.36 µM; in the series on Plasmodium falciparum, 16.9 µM.

The values are drawn from ChEMBL document CHEMBL1139001, “Alkyl-linked bis-THTT derivatives as potent in vitro trypanocidal agents” (Bioorg Med Chem Lett, 2006).
